Reference: patent US20190135793A1, “HETEROCYCLIC INHIBITORS OF KDM5 FOR THE TREATMENT OF DISEASE” (Board of Regents, The University of Texas System, priority 2017, published 2019)
pIC50: −log10 of the molar value. Read-outs that look alike come from different tables or passages of the source.

Key:
KDM5B = target: T1, KDM5B (Homo sapiens, UniProt Q9UGL1); assay: biochemical
T1 construct: Full length of KDM5B and KDM4C protein were purchased from Active Motif; purchased Active Motif 31832
How it was run: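 KDM5B (0.5 nM final) was preincubated with compound for 15 min at room temperature, then reacted with biotinylated peptide (3 nM final) for 25 min at room temperature.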

KDM4C = target: T2, KDM4C (Homo sapiens, UniProt Q9H3R0); assay: KDM4C AlphaScreen assay; assay type: biochemical; conditions: AlphaScreen; full length KDM4C 0.2 nM; biotinylated H3K9Me3 peptide 3 nM; 30 minutes at room temperature
T2 construct: Full length of KDM5B and KDM4C protein were purchased from Active Motif; purchased Active Motif 31858
T2 sequence (Q9H3R0 1-1056): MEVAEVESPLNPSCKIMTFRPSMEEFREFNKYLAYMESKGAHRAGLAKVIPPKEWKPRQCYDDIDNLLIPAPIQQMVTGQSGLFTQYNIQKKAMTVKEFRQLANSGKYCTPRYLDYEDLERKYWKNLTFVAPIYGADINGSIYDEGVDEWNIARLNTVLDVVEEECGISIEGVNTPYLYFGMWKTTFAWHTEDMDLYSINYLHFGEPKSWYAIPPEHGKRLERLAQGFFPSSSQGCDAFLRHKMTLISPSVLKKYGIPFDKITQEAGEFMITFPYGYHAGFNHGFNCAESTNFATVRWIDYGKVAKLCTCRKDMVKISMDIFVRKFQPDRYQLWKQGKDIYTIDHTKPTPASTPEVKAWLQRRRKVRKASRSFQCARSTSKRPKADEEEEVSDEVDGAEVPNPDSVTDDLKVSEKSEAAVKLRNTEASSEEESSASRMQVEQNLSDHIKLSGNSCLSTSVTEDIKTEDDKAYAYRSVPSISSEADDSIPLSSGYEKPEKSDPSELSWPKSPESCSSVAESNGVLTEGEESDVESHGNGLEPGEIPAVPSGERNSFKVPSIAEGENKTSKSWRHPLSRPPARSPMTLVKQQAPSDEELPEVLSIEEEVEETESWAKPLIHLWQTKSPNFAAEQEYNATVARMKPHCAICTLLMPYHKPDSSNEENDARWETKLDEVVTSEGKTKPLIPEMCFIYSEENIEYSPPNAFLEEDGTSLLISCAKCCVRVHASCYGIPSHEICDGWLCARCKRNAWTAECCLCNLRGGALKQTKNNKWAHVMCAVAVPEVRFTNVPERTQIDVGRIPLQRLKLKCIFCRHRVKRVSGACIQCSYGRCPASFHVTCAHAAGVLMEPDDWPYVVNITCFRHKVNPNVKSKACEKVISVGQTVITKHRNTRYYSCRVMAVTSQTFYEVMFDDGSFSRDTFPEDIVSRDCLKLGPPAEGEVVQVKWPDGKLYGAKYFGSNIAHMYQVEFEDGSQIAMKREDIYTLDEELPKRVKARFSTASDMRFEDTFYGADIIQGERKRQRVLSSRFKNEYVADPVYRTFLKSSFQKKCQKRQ
How it was run: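 Full-length KDM4C (0.2 nM final) was preincubated 15 min at RT with compound in HEPES pH 7.4 with Tween-20, BSA and TCEP. The reaction ran 30 min at RT after adding biotinylated peptide (3 nM final) in buffer with Fe(II), α-ketoglutarate and ascorbate. EDTA-containing AlphaScreen beads stopped it; IC50 was curve-fitted.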

[1] = AlphaScreen, full length KDM5B 0.5 nM, biotinylated H3K4Me3 peptide 3 nM, 25 minutes at room temperature, read-out: KDM5B (IC50)

T1 sequence (Q9UGL1 whole entry): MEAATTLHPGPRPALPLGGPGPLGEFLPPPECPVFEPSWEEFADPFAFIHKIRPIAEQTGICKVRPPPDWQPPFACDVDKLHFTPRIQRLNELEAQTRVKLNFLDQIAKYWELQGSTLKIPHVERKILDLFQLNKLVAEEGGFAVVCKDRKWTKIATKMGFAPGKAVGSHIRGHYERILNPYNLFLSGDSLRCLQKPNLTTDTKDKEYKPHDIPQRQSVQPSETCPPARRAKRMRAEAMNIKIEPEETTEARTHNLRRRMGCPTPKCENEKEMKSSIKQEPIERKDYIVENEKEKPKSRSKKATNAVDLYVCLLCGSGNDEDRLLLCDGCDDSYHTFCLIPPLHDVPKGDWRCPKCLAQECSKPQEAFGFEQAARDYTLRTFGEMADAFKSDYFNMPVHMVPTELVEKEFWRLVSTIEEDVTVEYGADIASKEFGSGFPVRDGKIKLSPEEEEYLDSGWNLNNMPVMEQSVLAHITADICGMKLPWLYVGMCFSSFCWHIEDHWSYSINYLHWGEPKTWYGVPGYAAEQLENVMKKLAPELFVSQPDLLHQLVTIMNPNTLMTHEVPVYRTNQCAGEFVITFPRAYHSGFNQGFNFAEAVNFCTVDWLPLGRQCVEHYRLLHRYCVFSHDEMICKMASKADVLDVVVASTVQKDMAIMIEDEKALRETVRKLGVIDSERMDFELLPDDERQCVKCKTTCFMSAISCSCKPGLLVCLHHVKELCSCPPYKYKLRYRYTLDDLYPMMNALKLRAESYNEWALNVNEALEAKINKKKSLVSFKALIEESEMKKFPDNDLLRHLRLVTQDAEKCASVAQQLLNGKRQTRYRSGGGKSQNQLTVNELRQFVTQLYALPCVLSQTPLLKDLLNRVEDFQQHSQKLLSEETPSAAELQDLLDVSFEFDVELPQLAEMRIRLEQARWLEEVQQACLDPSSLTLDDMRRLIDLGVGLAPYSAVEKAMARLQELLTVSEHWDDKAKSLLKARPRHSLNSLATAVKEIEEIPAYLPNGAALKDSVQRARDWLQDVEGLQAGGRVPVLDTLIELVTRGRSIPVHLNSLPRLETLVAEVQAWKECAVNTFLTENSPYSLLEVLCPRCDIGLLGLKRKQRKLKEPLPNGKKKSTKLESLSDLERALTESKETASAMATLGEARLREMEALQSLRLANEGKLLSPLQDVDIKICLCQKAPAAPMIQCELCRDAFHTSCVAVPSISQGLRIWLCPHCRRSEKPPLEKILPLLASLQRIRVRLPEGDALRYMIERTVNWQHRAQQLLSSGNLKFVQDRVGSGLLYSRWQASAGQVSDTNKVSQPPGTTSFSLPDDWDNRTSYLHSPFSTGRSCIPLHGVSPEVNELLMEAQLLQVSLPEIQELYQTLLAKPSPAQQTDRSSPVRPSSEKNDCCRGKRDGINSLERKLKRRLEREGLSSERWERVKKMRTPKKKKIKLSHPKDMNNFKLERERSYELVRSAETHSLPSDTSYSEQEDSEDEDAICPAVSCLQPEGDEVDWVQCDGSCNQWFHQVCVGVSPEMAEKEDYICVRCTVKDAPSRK

Row | Structure (SMILES) | pIC50 (KDM5B; [1]) | pIC50 (KDM4C) | pIC50 (KDM5B)
1 | CCCCCCOc1nc(-n2ccnc2)nc(O)c1C(C)C [Example 140, 6-(Hexyloxy)-2-(1H-imidazol-1-yl)-5-(propan-2-yl)pyrimidin-4-ol] | 6.47 | 4.30 | 
2 | CC(C)c1c(O)nc(-c2cncs2)nc1OCc1ccccn1 [Example 145, 5-(Propan-2-yl)-6-(pyridin-2-ylmethoxy)-2-(1,3-thiazol-5-yl)pyrimidin-4-ol] |  | 4.68 | 6.79
3 | CC(CN1CCOCC1)Oc1nc(-n2ccnc2)nc(O)c1C(C)C (stereo not shown) [Example 138, 2-(1H-Imidazol-1-yl)-6-{[1-(morpholin-4-yl)propan-2-yl]oxy}-5-(propan-2-yl)-pyrimidin-4-ol] |  | 5.26 | 7.19
4 | Cc1nc(-c2c[nH]cn2)nc(O)c1C(C)C [Example 21, 2-(1H-imidazol-4-yl)-5-isopropyl-6-methylpyrimidin-4-ol] |  | 4.68 | 5.71
5 | CC(C)c1c(O)nc(-c2cncs2)nc1-c1cnn(Cc2ccccc2)c1 [Example 20, 6-(1-Benzyl-1H-pyrazol-4-yl)-5-(propan-2-yl)-2-(1,3-thiazol-5-yl)pyrimidin-4-ol] |  | 4.95 | 7.00
6 | Cc1nc(-c2cn[nH]c2)nc(O)c1C(C)C [Example 26, 5-Isopropyl-6-methyl-2-(1H-pyrazol-4-yl)pyrimidin-4-ol] |  | 4.80 | 5.97
7 | CC(C)c1c(O)nc(-n2ccnc2)nc1-c1cccc(C#N)c1 [Example 79, 3-[6-Hydroxy-2-(1H-imidazol-1-yl)-5-(propan-2-yl)pyrimidin-4-yl]benzonitrile] |  | 5.28 | 7.40
8 | CC(C)c1c(O)nc(-n2ccnc2)nc1OCC(=O)NCc1cccnc1 [Example 141, 2-{[6-Hydroxy-2-(1H-imidazol-1-yl)-5-(propan-2-yl)pyrimidin-4-yl]oxy}-N-(pyridin-3-ylmethyl)-acetamide] | 7.48 | 5.36 | 
9 | CC(C)c1c(O)nc(-n2ccnc2)nc1OCC(=O)O [Example 15, 2-{[6-hydroxy-2-(1H-imidazol-1-yl)-5-(propan-2-yl)pyrimidin-4-yl]oxy}acetic acid] |  | 4.99 | 6.19
10 | CC(C)c1c(O)nc(-n2ccnc2)nc1-c1cnn(CC(C)(C)O)c1 [Example 81, 6-[1-(2-Hydroxy-2-methyl-propyl)-1H-pyrazol-4-yl]-2-(1H-imidazol-1-yl)-5-(propan-2-yl)pyrimidin-4-ol] |  | 5.39 | 7.22
11 | CC(C)c1c(O)nc(-c2cncs2)nc1-c1cnn(C)c1 [Example 30, 5-isopropyl-6-(1-methyl-1H-pyrazol-4-yl)-2-(thiazol-5-yl)pyrimidin-4-ol] |  | 4.81 | 6.46
12 | Cc1nc(-c2cncn2C)nc(O)c1C(C)C [Example 31, 6-methyl-2-(1-methyl-1H-imidazol-5-yl)-5-(propan-2-yl)pyrimidin-4-ol] |  | 5.25 | 7.13
13 | Cc1cn(-c2nc(O)c(C(C)C)c(OCc3cccnc3)n2)cn1 [Example 151, 2-(4-Methyl-1H-imidazol-1-yl)-5-(propan-2-yl)-6-(pyridin-3-ylmethoxy)-pyrimidin-4-ol] | 6.23 | 5.06 | 

Stronger by pIC50 (KDM4C), values ahead:

Row | pIC50 (KDM5B; [1]) | pIC50 (KDM4C) | pIC50 (KDM5B) | Structure (SMILES)
14 | 7.74 | 5.66 |  | CNC(=O)c1ccc(-c2nc(-n3ccnc3)nc(O)c2C(C)C)cn1 [Example 120, 5-[6-Hydroxy-2-(1H-imidazol-1-yl)-5-(propan-2-yl)pyrimidin-4-yl]-N-methyl-pyridine-2-carboxamide]
15 | 7.77 | 5.83 |  | CC(C)c1c(O)nc(-n2ccnc2)nc1-c1ccc(S(=O)(=O)N(C)C)cc1 [Example 61, 4-[6-Hydroxy-2-(1H-imidazol-1-yl)-5-(propan-2-yl)pyrimidin-4-yl]-N,N-dimethylbenzene-1-sulfonamide]
16 |  | 6.09 | 8.00 | CC(C)c1c(O)nc(-n2ccnc2)nc1-c1cnn(CCC#N)c1 [Example 44, 3-{4-[6-Hydroxy-2-(1H-imidazol-1-yl)-5-(propan-2-yl)pyrimidin-4-yl]-1H-pyrazol-1-yl}propanenitrile]
17 |  | 5.53 | 7.57 | CC(C)c1c(O)nc(-n2ccnc2)nc1NCc1cccnc1 [Example 18, 2-(1H-Imidazol-1-yl)-5-isopropyl-6-((pyridin-3-ylmethyl)amino)pyrimidin-4-ol]
18 | 7.72 | 5.91 |  | CC(C)c1c(O)nc(-n2ccnc2)nc1-c1cnn(CC(=O)NCCS(C)(=O)=O)c1 [Example 107, 2-{4-[6-Hydroxy-2-(1H-imidazol-1-yl)-5-(propan-2-yl)pyrimidin-4-yl]-1H-pyrazol-1-yl}-N-(2-methane-sulfonylethyl)acetamide]
19 | 7.60 | 5.76 |  | CC(C)c1c(O)nc(-n2ccnc2)nc1-c1cnn(CC(=O)N2CCCC(O)C2)c1 (stereo not shown) [Example 74, 2-{4-[6-Hydroxy-2-(1H-imidazol-1-yl)-5-(propan-2-yl)pyrimidin-4-yl]-1H-pyrazol-1-yl}-1-(3-hydroxy-piperidin-1-yl)ethan-1-one]
20 |  | 6.21 | 8.15 | CC(C)c1c(O)nc(-n2ccnc2)nc1-c1cnn(CC(=O)NCC2CN(C)CCO2)c1 (stereo not shown) [Example 97, 2-{4-[6-Hydroxy-2-(1H-imidazol-1-yl)-5-(propan-2-yl)pyrimidin-4-yl]-1H-pyrazol-1-yl}-N-[(4-methyl-morpholin-2-yl)methyl]-acetamide]
21 |  | 5.76 | 7.82 | CC(C)c1c(O)nc(-n2ccnc2)nc1-c1cnn(Cc2ccncc2)c1 [Example 53, 2-(1H-Imidazol-1-yl)-5-(propan-2-yl)-6-[1-(pyridin-4-ylmethyl)-1H-pyrazol-4-yl]-pyrimidin-4-ol]
22 |  | 5.57 | 7.05 | CC(C)c1c(O)nc(-n2ccnc2)nc1-c1ccccc1 [Example 83, 2-(1H-Imidazol-1-yl)-6-phenyl-5-(propan-2-yl)-pyrimidin-4-ol]
23 | 7.57 | 5.91 |  | CC(C)c1c(O)nc(-n2ccnc2)nc1-c1cnn(C(C)(C)C)c1 [Example 75, 6-(1-tert-Butyl-1H-pyrazol-4-yl)-2-(1H-imidazol-1-yl)-5-(propan-2-yl)pyrimidin-4-ol]
24 | 7.89 | 5.90 |  | CC(C)c1c(O)nc(-n2ccnc2)nc1-c1ccc(CNS(C)(=O)=O)cc1 [Example 48, N-({4-[6-Hydroxy-2-(1H-imidazol-1-yl)-5-(propan-2-yl)pyrimidin-4-yl]phenyl}-methyl)methanesulfonamide]
25 |  | 5.81 | 7.74 | CC(C)c1c(O)nc(-n2ccnc2)nc1-c1cnn(Cc2ccccc2)c1 [Example 63, 6-(1-Benzyl-1H-pyrazol-4-yl)-2-(1H-imidazol-1-yl)-5-(propan-2-yl)pyrimidin-4-ol]
26 |  | 5.51 | 7.48 | COCCNC(=O)Cn1cc(-c2nc(-n3ccnc3)nc(O)c2C(C)C)cn1 [Example 118, 2-{4-[6-Hydroxy-2-(1H-imidazol-1-yl)-5-(propan-2-yl)pyrimidin-4-yl]-1H-pyrazol-1-yl}-N-(2-methoxy-ethyl)acetamide]
27 |  | 6.30 | 8.10 | CC(C)c1c(O)nc(-n2ccnc2)nc1-c1cnn(CC(=O)N2CCCC(N)C2)c1 (stereo not shown) [Example 98, 1-(3-Aminopiperidin-1-yl)-2-{4-[6-hydroxy-2-(1H-imidazol-1-yl)-5-(propan-2-yl)pyrimidin-4-yl]-1H-pyrazol-1-yl}ethan-1-one]
28 |  | 5.73 | 7.54 | CC(C)c1c(O)nc(-n2ccnc2)nc1-c1cccc(CNS(C)(=O)=O)c1 [Example 76, N-({3-[6-Hydroxy-2-(1H-imidazol-1-yl)-5-(propan-2-yl)pyrimidin-4-yl]phenyl}-methyl)methanesulfonamide]
29 |  | 5.67 | 7.46 | CC(C)c1c(O)nc(-n2ccnc2)nc1OCC(=O)N1CCOCC1 [Example 142, 2-{[6-Hydroxy-2-(1H-imidazol-1-yl)-5-(propan-2-yl)pyrimidin-4-yl]oxy}-1-(morpholin-4-yl)ethan-1-one]
